Test: accelerated storage stability at 40° C. and 75% relative humidity (active ingredient content)

Row | activity of the original quantity (160 μg levothyroxine-Na preparation, water factor 0.3, 40° C. and 75% relative humidity, 3 months) [% by weight] | residual activity (160 μg levothyroxine-Na preparation, water factors 0.4 to 0.5, 40° C. and 75% relative humidity, 3 months) [% by weight] | SMILES | employed quantity still active (combination preparation containing 25 μg liothyronine-Na, water factor 0.25, one month) [% by weight] | content remaining (combination preparation containing 25 μg liothyronine-Na, water factor 0.4 to 0.5, 1 month) [%]
1 | 95.2 | 90.7 | N[C@@H](Cc1cc(I)c(Oc2cc(I)c(O)c(I)c2)c(I)c1)C(=O)[O-].[Na+] [Levothyroxine-Na] | – | –
2 | – | – | N[C@@H](Cc1cc(I)c(Oc2ccc(O)c(I)c2)c(I)c1)C(=O)[O-].[Na+] [liothyronine-Na] | 97.7 | 87.2

From patent publication US8293272B2, “Solid pharmaceutical preparation containing levothyroxine and/or liothyronine salts” (Globopharm Pharmazeutische Produktions-und …, priority 2003, dated 2012)
